In brackets after ≈: the same amount, converted by molar mass.
Tests used:
[1] = system: C. difficile NAP1/027 CD26A54_R; parameters: method as in PMID 24400070; settings: cited from earlier work
[2] = system: C. difficile NAP1/027 CD26A54_R; parameters: method as in PMID 24400070; settings: cited from earlier work; remark: listed apart in the source
[3] = system: C. difficile NAP1/027 CD26A54_S; experiment: Metronidazole E-test on BAKHS, C. difficile CD26A54_S; format: cell-based, Clostridium difficile; settings: Clostridioides difficile, BAKHS agar
Method: (§1) Mid-log phase (OD600 =0.5- 0.6) culture was diluted to a 0.5 McFarland standard (OD600~ 0.1) in prereduced broth. The diluted culture was inoculated onto duplicate BAKHS agar plate using a cotton tip applicator. The inoculum was allowed to dry before the Metronidazole E-test strip (Metronidazole MZH 256-S30, bioMérieux Australia) was placed in duplicate on the surface of the agar. The agar plate was inverted and incubated for up to 96 hr. The MIC was read as the point at which the elliptical zone of inhibition intercepted the E-test strip at 24, 48 and 96 hr.

[4] = system: H. pylori clinical isolate 13/61; experiment: Metronidazole E-test, H. pylori 13/61; format: cell-based; settings: Helicobacter pylori
Method: (§2) Helicobacter pylori strains, with a range of resistance levels to metronidazole (256 µg/ml, 64 µg/ml, 24 µg/ml, 2 µg/ml, and 0.04 µg/ml), were selected and obtained from Helicobacter Research Laboratory, University of Western Australia. The resistance strength to metronidazole was recorded according to eTest (bioMérieux). H. pylori strain 26695 was used as the control. H. pylori was maintained on the non-selective Columbia blood agar plates (CBA) (Columbia agar base Oxoid) with 5% horse blood and incubated at 37 °C and 10% CO2 for 48 hrs. […] Each of the H. pylori strains were harvested, OD600 calibrated to 0.3, and spotted in triplicate on CBA pre-mixed with the compound. The lowest concentration of antibiotic showing no growth was read as the MIC. The experiment was performed in duplicate.

[5] = system: C. difficile NAP1/027 ATCC BAA-1803; experiment: Metronidazole E-test on BAKHS, C. difficile ATCC BAA-1803; format: cell-based, Clostridium difficile; settings: Clostridioides difficile, ATCCBAA1803, BAKHS agar
Method: as §1

[6] = system: H. pylori clinical isolate 98/285; experiment: Metronidazole E-test, H. pylori 98/285; format: cell-based; settings: Helicobacter pylori
Method: as §2

[7] = in vivo; cited from earlier work
[8] = system: H. pylori clinical isolate 13/25; experiment: Metronidazole E-test, H. pylori 13/25; format: cell-based; settings: Helicobacter pylori
Method: as §2

Cc1ncc([N+](=O)[O-])n1CCO [Compound 1, metronidazole]
MIC to metronidazole in broth, MtzR C. difficile, reported by Chong et al. [1]: 8 µg/mL (≈ 46.7 µM)
Metronidazole MIC by E-test, MtzR C. difficile, reported by Chong et al. [2]: > 32 µg/mL
MIC ([3]; 24 hrs): 6 µg/mL (≈ 35.1 µM)
MIC ([3]; 48 hrs): 8 µg/mL (≈ 46.7 µM)
MIC ([3]; 96 hrs): 8 µg/mL (≈ 46.7 µM)
MIC [4]: 256 µg/mL (≈ 1500 µM)
MIC ([5]; 24 hrs): 2 µg/mL (≈ 11.7 µM)
MIC ([5]; 48 hrs): 2 µg/mL (≈ 11.7 µM)
MIC ([5]; 96 hrs): 2 µg/mL (≈ 11.7 µM)
MIC [6]: 24 µg/mL (≈ 140 µM)
oral bioavailable [7]: 100%
MIC [8]: 2 µg/mL (≈ 11.7 µM)
